Where a chain is given by its changes, count along the chain named.
Experiments:
[1] = when used at high concentration; cited from earlier work
[2] = tested on: GR Q642 mutations (Q642A, Q642F, Q642E, Q642K); assay: MMTV-Luc transactivation assay with the other Q642 mutations; assay type: cell-based; settings: MF 1 nM, DEX 10 nM
[3] = biological target: T1, GR (Homo sapiens, UniProt P04150); assay: MMTV-Luc transactivation (induction) reporter assay in AD293 cells; assay type: cell-based; settings: for potency for GR, in words: compounds without 17α furoate; for effect of the 17α furoate on potency and efficacy, in words: relative to the corresponding compound without 17α furoate; for potency compared with reference glucocorticoids, in words: MMTV-Luc, AD293 cells
T1 construct: expressed in transfected cells; host or cells: AD293 cells
T1 sequence (P04150 1-777): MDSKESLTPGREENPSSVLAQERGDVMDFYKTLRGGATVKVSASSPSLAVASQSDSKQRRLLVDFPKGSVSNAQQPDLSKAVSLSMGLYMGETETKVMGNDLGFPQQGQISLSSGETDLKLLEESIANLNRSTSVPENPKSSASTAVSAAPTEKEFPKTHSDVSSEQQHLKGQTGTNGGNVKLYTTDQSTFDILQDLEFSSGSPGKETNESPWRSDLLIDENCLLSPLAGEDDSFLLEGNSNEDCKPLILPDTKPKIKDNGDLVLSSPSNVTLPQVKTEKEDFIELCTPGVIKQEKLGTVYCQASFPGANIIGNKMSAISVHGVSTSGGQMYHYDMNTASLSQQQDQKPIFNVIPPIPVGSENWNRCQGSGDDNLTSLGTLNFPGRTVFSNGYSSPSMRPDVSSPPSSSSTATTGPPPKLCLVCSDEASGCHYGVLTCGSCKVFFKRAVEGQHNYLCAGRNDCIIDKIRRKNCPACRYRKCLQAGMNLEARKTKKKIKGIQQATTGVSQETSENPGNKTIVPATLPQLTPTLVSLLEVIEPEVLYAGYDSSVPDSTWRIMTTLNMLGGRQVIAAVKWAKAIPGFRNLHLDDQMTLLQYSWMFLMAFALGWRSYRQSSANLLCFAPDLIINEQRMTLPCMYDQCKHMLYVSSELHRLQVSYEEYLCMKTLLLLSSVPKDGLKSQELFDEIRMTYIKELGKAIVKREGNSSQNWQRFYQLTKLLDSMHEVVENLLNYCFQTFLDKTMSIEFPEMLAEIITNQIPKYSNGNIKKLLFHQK

[4] = biological target: T1, GR; assay: AP1-Luc transrepression reporter assay in AD293 cells; assay type: cell-based
[5] = biological target: T2, GR Q642N (Homo sapiens, UniProt P04150, Q642N); assay: MMTV-Luc transactivation assay with Q642N mutant; assay type: cell-based; settings: compared with wild type; up to saturation concentration
T2 construct: expressed in transfected cells; host or cells: AD293 cells
T2 sequence (P04150 1-777 Q642N): T1 sequence (P04150 1-777) with Q642N
Method: AD293 cells were split at 20,000/well in 24 well plate one day before transfection. For transactivation, 100 ng pHHLuc (MMTV-Luc) plasmid, 0.1 ng pRShGR together with 5 ng phRGtkRenilla were transfected by X-tremeGENE 9 (Roche) into AD293 cells per well. For transreperssion, 10 ng AP1-Luc, 100 ng pRShGR and 5 ng phRGtkRenilla were transfected into AD293 cells per well. One day after transfection, cells were induced by different treatment (steroids or vehicle) 16 hrs overnight.

## CC1=C[C@@H]2[C@H]([C@@H](O)C[C@@]3(C)[C@H]2C[C@@H](C)[C@]3(O)C(=O)CO)[C@@]2(C)Cc3cnn(-c4ccccc4)c3C=C12 [DAC, deacylcortivazol]
[1]
  cytotoxicity, in words: strong cytotoxicity

## C[C@@H]1C[C@H]2[C@@H]3CCC4=CC(=O)C=C[C@]4(C)[C@@]3(Cl)[C@@H](O)C[C@]2(C)[C@@]1(OC(=O)c1ccco1)C(=O)CCl [MF, Mometasone Furoate]
[2]
  transactivation activity at sub-saturated concentration, in words: loss of most of the activity

## CCNC(=O)[C@@]1(O)CCC2C3CCC4=Cc5c(cnn5-c5cccc(C(=O)NCc6ccccc6)c5)C[C@]4(C)C3[C@@H](O)C[C@@]21C (some centres unmarked) [VSG02]
[3]
  potency for GR, in words: relatively low potency

## CCCNC(=O)[C@@]1(O)CCC2C3CCC4=Cc5c(cnn5-c5cccc(C(=O)NCc6ccccc6)c5)C[C@]4(C)C3[C@@H](O)C[C@@]21C (some centres unmarked) [VSG03]
[3]
  potency for GR, in words: relatively low potency

## CCNC(=O)[C@@]1(OC(=O)c2ccco2)CCC2C3CCC4=Cc5c(cnn5-c5cccc(C(=O)NCc6ccccc6)c5)C[C@]4(C)C3[C@@H](O)C[C@@]21C (some centres unmarked) [VSG10]
[3]
  effect of the 17α furoate on potency and efficacy, in words: greatly increased both GR potency and efficacy

## CCCNC(=O)[C@@]1(OC(=O)c2ccco2)CCC2C3CCC4=Cc5c(cnn5-c5cccc(C(=O)NCc6ccccc6)c5)C[C@]4(C)C3[C@@H](O)C[C@@]21C (some centres unmarked) [VSG11]
[3]
  effect of the 17α furoate on potency and efficacy, in words: greatly increased both GR potency and efficacy

## C[C@]12Cc3cnn(-c4cccc(C(=O)NCc5ccccc5)c4)c3C=C1CCC1C2[C@@H](O)C[C@@]2(C)C1CC[C@]2(OC(=O)c1ccco1)C(=O)NCc1ccccc1 (some centres unmarked) [VSG14]
[3]
  effect of the 17α furoate on potency and efficacy, in words: greatly increased both GR potency and efficacy

## CCC(=O)O[C@]1(C(=O)NCc2ccccc2)CCC2C3CCC4=Cc5c(cnn5-c5cccc(C(=O)NCc6ccccc6)c5)C[C@]4(C)C3[C@@H](O)C[C@@]21C (some centres unmarked) [VSG15]
[3]
  potency for GR, in words: relatively low potency

## CON(C)C(=O)[C@@]1(OC(=O)c2ccco2)CCC2C3CCC4=Cc5c(cnn5-c5ccccc5)C[C@]4(C)C3[C@@H](O)C[C@@]21C (some centres unmarked) [VSG22]
[3]
  potency compared with reference glucocorticoids, in words: slightly weaker than MF
  effect of the 17α furoate on potency and efficacy, in words: greatly increased both potency and efficacy
[3]; VSG22 vs VSG24
  EC50 change on replacement of the 17α hydroxyl group by a furoate ester: greater than 1000 fold

## CON(C)C(=O)[C@@]1(OC(=O)c2ccco2)CCC2C3CCC4=Cc5c(cnn5-c5ccccc5)C[C@]4(C)C3[C@@H](O)C[C@@]21C (some centres unmarked) [VSG24F]
[3]
  potency compared with reference glucocorticoids, in words: better than those of DEX and DAC

## CON(C)C(=O)[C@@]1(O)CCC2C3CCC4=Cc5c(cnn5-c5ccccc5)C[C@]4(C)C3[C@@H](O)C[C@@]21C (some centres unmarked) [VSG24]
[3]
  activity in the MMTV reporter assay, in words: almost no activity

## C[C@]12CCC(=O)C=C1CC[C@@H]1[C@@H]2[C@@H](O)C[C@@]2(C)[C@H]1CC[C@]2(O)C(=O)CO [cortisol, Cortisol]
[3]; at its saturation concentration (10 μM)
  efficacy as % of the efficacy of DEX, transactivation: 80%
[4]
  potency compared with DEX, transrepression, in words: much weaker than DEX
[5]
  full dose-response curve of Q642N, in words: inactive

## C[C@]12C=CC(=O)C=C1CC[C@@H]1[C@@H]2[C@@H](O)C[C@@]2(C)[C@H]1CC[C@]2(O)C(=O)CO [prednisolone, reference compound]
[3]; transactivation, relative to cortisol
  leftward shift of the cortisol dose-response curve: about 5 fold
